The values below come from publication PMC5698704 (Chemmedchem, 2017).

One experiment relates to CDK2/CycE. Briefly: CDK2/CycE kinase assay. It is filed as biochemical, human. The conditions noted are these: ratio of IC50 values CDK2/CDK9, in-house assays.
The next experiment deals with HeLa cells. The experiment is described as follows: Proliferation assay HeLa. In kind it is cell-based. The conditions noted are these: Homo sapiens, 96 h, read-out: HeLa IC50.
In the next experiment the target is CDK9/CycT1 (Homo sapiens, UniProt P50750). The experiment is described as follows: CDK9/CycT1 kinase assay. It is filed as biochemical.

The structures appear in SMILES notation. Some results are limits rather than exact numbers.

Sequence of CDK9/CycT1 (P50750 whole entry): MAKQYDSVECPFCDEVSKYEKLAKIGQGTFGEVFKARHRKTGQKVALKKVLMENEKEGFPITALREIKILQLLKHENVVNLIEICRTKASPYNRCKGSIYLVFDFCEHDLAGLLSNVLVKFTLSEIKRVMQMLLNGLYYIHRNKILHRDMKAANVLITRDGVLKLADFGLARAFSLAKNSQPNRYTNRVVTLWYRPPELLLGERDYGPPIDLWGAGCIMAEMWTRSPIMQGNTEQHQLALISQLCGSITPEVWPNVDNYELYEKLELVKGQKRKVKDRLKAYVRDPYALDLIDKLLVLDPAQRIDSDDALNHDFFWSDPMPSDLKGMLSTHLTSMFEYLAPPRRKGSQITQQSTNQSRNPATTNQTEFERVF
Sequence of CDK9/CycT1 (O60563 whole entry partner): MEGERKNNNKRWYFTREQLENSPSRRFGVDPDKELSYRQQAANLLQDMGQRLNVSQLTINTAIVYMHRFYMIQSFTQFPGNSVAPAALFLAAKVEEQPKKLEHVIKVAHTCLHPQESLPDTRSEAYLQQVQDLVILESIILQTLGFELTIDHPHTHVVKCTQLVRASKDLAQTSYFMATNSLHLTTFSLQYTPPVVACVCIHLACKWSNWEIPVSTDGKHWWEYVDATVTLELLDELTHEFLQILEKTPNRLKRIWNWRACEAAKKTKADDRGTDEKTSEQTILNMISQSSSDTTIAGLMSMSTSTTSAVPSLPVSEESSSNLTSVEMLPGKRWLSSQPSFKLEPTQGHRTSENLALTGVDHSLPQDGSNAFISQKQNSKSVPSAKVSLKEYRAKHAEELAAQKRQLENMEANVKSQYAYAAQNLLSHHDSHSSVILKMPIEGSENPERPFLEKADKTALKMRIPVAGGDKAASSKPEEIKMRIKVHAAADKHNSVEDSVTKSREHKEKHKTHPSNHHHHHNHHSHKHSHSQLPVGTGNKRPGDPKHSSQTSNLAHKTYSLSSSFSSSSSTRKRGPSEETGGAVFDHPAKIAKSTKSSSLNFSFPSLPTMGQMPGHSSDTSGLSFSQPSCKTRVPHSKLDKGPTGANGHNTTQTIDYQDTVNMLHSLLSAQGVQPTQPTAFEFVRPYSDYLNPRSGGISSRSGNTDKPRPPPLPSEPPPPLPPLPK

`COc1cc(F)ccc1-c1ncnc(Nc2cccc(CS(=O)(=O)C(C)(C)C)c2)n1` [Compound 9, N ‐{3‐[(tertButylsulfonyl)methyl]phenyl}‐4‐(4‐fluoro‐2‐methoxyphenyl)‐1,3,5‐triazin‐2‐amine]: the “Selectivity vs. CDK2, ratio of IC50 values” (from here on “Selectivity vs. CDK2, ratio”) with CDK2/CycE is listed as 43. Besides, the IC50 in the experiment on HeLa cells was determined as 2900 nM.
As for `NS(=O)(=O)Cc1cccc(Nc2ncnc(-c3ccc(F)cc3C(F)(F)F)n2)c1` [Compound 22, 1‐[3‐({4‐[4‐Fluoro‐2‐(trifluoromethyl)phenyl]‐1,3,5‐triazin‐2‐yl}amino)phenyl]methanesulfonamide], the “Selectivity vs. CDK2, ratio” value in the experiment on CDK2/CycE is on record as 1.
On to `COc1cc(F)ccc1-c1ncnc(Nc2cccc(C(F)S(C)(=O)=O)c2)n1` (racemic) [Compound 12, (rac)‐4‐(4‐Fluoro‐2‐methoxyphenyl)‐N‐{3‐[fluoro(methylsulfonyl)methyl]phenyl}‐1,3,5‐triazin‐2‐amine], for which the IC50 on CDK9/CycT1 was 20 nM; in the experiment with HeLa cells it was 890 nM. Further, the “Selectivity vs. CDK2, ratio” value in the experiment on CDK2/CycE is 13.
Take `COc1cc(F)ccc1-c1ncnc(Nc2cccc(C(C)S(C)(=O)=O)c2)n1` (racemic) [Compound 10, (rac)‐4‐(4‐Fluoro‐2‐methoxyphenyl)‐N‐{3‐[1‐(methylsulfonyl)ethyl]phenyl}‐1,3,5‐triazin‐2‐amine]: the IC50 against CDK9/CycT1 is 85 nM; in the experiment on HeLa cells, 3200 nM. In addition, the “Selectivity vs. CDK2, ratio” value in the experiment on CDK2/CycE was determined as 21.
The matching figures for `COc1cc(F)ccc1-c1ncnc(Nc2ccc3c(c2)CS(=O)(=O)C3)n1` [Compound 8, N‐( 2,2‐Dioxido‐1,3‐dihydro‐2‐benzothien‐5‐yl)‐4‐(4‐fluoro‐2‐methoxyphenyl)‐1,3,5‐triazin‐2‐amine]: 51 nM, 11000 nM and less than 1.
Take `COc1ccccc1-c1ncnc(Nc2cccc(CS(N)(=O)=O)c2)n1` [Compound 14, 1‐(3‐{[4‐(2‐Methoxyphenyl)‐1,3,5‐triazin‐2‐yl]amino}phenyl)methanesulfonamide]: the IC50 at CDK9/CycT1 turned out to be 23 nM; in the experiment on HeLa cells it was 1600 nM. Also, in the experiment with CDK2/CycE, the “Selectivity vs. CDK2, ratio” value stood at 62.
With `NS(=O)(=O)Cc1cccc(Nc2ncnc(-c3ccc(F)cc3F)n2)c1` [Compound 18, 1‐(3‐{[4‐(2,4‐Difluorophenyl)‐1,3,5‐triazin‐2‐yl]amino}phenyl)methanesulfonamide], the figures for the IC50 at CDK9/CycT1 and in the experiment on HeLa cells were 270 nM and more than 3000 nM, respectively. For the same compound, in the experiment with CDK2/CycE, the “Selectivity vs. CDK2, ratio” value is listed as 16.
With `COc1cc(Cl)ccc1-c1ncnc(Nc2cccc(CS(N)(=O)=O)c2)n1` [Compound 15, 1‐(3‐{[4‐(4‐Chloro‐2‐methoxyphenyl)‐1,3,5‐triazin‐2‐yl]amino}phenyl)methanesulfonamide], the IC50 at CDK9/CycT1 came to 27 nM; in the experiment on HeLa cells, 3800 nM. The “Selectivity vs. CDK2, ratio” value with CDK2/CycE came to 108.
Turning to `CC(=O)Nc1cc(F)ccc1-c1ncnc(Nc2cccc(CS(N)(=O)=O)c2)n1` [Compound 21, N ‐[5‐Fluoro‐2‐(4‐{[3‐(sulfamoylmethyl)phenyl]amino}‐1,3,5‐triazin‐2‐yl)phenyl]acetamide], the “Selectivity vs. CDK2, ratio” value in the experiment with CDK2/CycE is recorded as less than 1. Also, the IC50 in the experiment on HeLa cells came to 3000 nM.
Turning to `COc1cnccc1-c1ncnc(Nc2cccc(CS(N)(=O)=O)c2)n1` [Compound 16, 1‐(3‐{[4‐(3‐Methoxypyridin‐4‐yl)‐1,3,5‐triazin‐2‐yl]amino}phenyl)methanesulfonamide], the IC50 on CDK9/CycT1 was found to be 1800 nM. Also, the “Selectivity vs. CDK2, ratio” value in the experiment on CDK2/CycE turned out to be 14.
The matching figures for `COc1cc(F)ccc1-c1ncnc(Nc2cccc(C(C)(C)S(C)(=O)=O)c2)n1` [Compound 11, 4‐(4‐Fluoro‐2‐methoxyphenyl)‐N‐{3‐[2‐(methylsulfonyl)propan‐2‐yl]phenyl}‐1,3,5‐triazin‐2‐amine]: 1000 nM and more than 20.
With `COCc1ccccc1-c1ncnc(Nc2cccc(CS(N)(=O)=O)c2)n1` [Compound 20, 1‐[3‐({4‐[2‐(Methoxymethyl)phenyl]‐1,3,5‐triazin‐2‐yl}amino)phenyl]methanesulfonamide], the midpoint of inhibition against CDK9/CycT1, the IC50, lay at 1700 nM. For the same compound, in the experiment with CDK2/CycE, the “Selectivity vs. CDK2, ratio” value is recorded as more than 11.
